Several values for one entry are separate records, joined by “and”; a condition that tells them apart may be missing. Identical values can stand only once. Like-named read-outs stand apart in the source and are kept apart here. Bounds are passed on as bounds.

By melting point is commonly meant the temperature of the solid-liquid transition.

The test system of data set [1] is HCMV. The settings on record: background, literature report; cited from earlier work.
Data set [2] concerns HCMV. Put plainly: HCMV plaque reduction assay (Towne strain) in HFF cells. It is filed as cell-based, Human cytomegalovirus. The protocol:
(§1) Stock HCMV was prepared by infecting HFF cells at a multiplicity of infection (m.o.i.) of <0.01 plaque-forming units (p.f.u.) per cell as detailed previously (see Turk, S. R.; Shipman, C., Jr.; Nassiri, M. R.; Genzingler, G.; Krawczyk, S. H.; Townsend, L. B.; Drach, J. C. Pyrrolo[2,3-d]pyrimidine Nucleosides as Inhibitors of Human Cytomegalovirus, Antimicrob. Agents Chemother. 1987, 31, 544-550). High titer HSV-1 stocks were prepared by infecting KB cells (ATCC) at an m.o.i. of <0.1 also as detailed previously (see Turk, S. R.; Shipman, C., Jr.; Nassiri, M. R.; Genzingler, G.; Krawczyk, S. H.; Townsend, L. B.; Drach, J. C. Pyrrolo[2,3-d]pyrimidine Nucleosides as Inhibitors of Human Cytomegalovirus, Antimicrob. Agents Chemother. 1987, 31, 544-550). Virus titers were determined using monolayer cultures of HFF cells for HCMV and monolayer cultures of BSC-1 cells for HSV-1 as described earlier (see Prichard, M. N.; Turk, S. R.; Coleman, L. A.; Engelhardt, S. L.; Shipman, C., Jr.; Drach, J. C. A Microtiter Virus Yield Reduction Assay for the Evaluation of Antiviral Compounds Against Human Cytomegalovirus and Herpes Simplex Virus. J. Virol. Methods 1990, 28, 101-106). Briefly, HFF or BSC-1 cells were planted as described above in 96-well cluster dishes and incubated overnight at 37° C. The next day cultures were inoculated with HCMV or HSV-1 and serially diluted 1:3 across the remaining eleven columns of the 96-well plate. After virus adsorption the inoculum was replaced with fresh medium and cultures were incubated for seven days for HCMV, two or three days for HSV-1. Plaques were enumerated under 20-fold magnification in wells having the dilution which gave 5 to 20 plaques per well. Virus titers were calculated according to the following formula: Titer (p.f.u./mL)=number of plaques×5×3^n; where n represents the nth dilution of the virus used to infect the well in which plaques were enumerated.
(§2) HFF cells in 24-well cluster dishes were infected with approximately 100 p.f.u. of HCMV per cm^2 cell sheet using the procedures detailed above. Following virus adsorption, compounds dissolved in growth medium were added to duplicate wells in four to eight selected concentrations. After incubation at 37° C. for 7 to 10 days, cell sheets were fixed, stained with crystal violet and microscopic plaques enumerated as described above.
(§3) Dose-response relationships were constructed by linearly regressing the percent inhibition of parameters derived in the preceding sections against log drug concentrations. Fifty-percent inhibitory concentrations (IC50's) or IC90's were calculated from the regression lines. Samples containing positive controls (acyclovir for HSV-1, ganciclovir for HCMV, and 2-acetylpyridine thiosemicarbazone for cytotoxicity) were used in all assays.
(In general: Plaques are areas of infected cells; plaque reduction assays count them against a control.)

The test system of data set [3] is HCMV. Put plainly: HCMV yield reduction assay (Towne strain) in HFF cells. It is filed as cell-based, Human cytomegalovirus. As to the method:
as §1
HFF cells were planted as described above in 96-well cluster dishes, incubated overnight, medium removed and the cultures were inoculated with HCMV at a m.o.i. of 0.5 to 1 p.f.u. per cell as reported elsewhere (see Prichard, M. N.; Turk, S. R.; Coleman, L. A.; Engelhardt, S. L.; Shipman, C., Jr.; Drach, J. C. A Microtiter Virus Yield Reduction Assay for the Evaluation of Antiviral Compounds Against Human Cytomegalovirus and Herpes Simplex Virus. J. Virol. Methods 1990, 28, 101-106). After virus adsorption, inoculum was replaced with 0.2 mL of fresh medium containing test compounds. The first row of 12 wells was left undisturbed and served as virus controls. Each well in the second row received an additional 0.1 mL of medium with test compound at three times the desired final concentration. The contents of the 12 wells were mixed by repeated pipetting and then serially diluted 1:3 along the remaining wells. In this manner, six compounds could be tested in duplicate on a single plate with concentrations from […]. Plates were incubated at 37° C. for seven days, subjected to one cycle of freezing and thawing; aliquots from each of the eight wells of a given column were transferred to the first column of a fresh 96-well monolayer culture of HFF cells. Contents were mixed and serially diluted 1:3 across the remaining eleven columns of the secondary plate. Each column of the original primary plate was diluted across a separate plate in this manner. Cultures were incubated, plaques were enumerated, and titers calculated as described above.
as §3

Data set [4] concerns HSV-1. Put plainly: HSV-1 ELISA in BSC-1 cells. It is filed as cell-based, herpes simplex virus 1. The settings on record: Human alphaherpesvirus 1, quadruplicate wells, read-out: HSV-1 ELISA 50% Inhibitory Concentration (IC50). As to the method:
An ELISA was employed (see Prichard, M. N.; Shipman, C., Jr. A Three Dimensional Model to Analyze Drug-Drug Interactions. Antiviral Res. 1990, 14, 181-206) to detect HSV-1. Ninety-six-well cluster dishes were planted with 10,000 BSC-1 cells per well in 200 μL per well of MEM(E) plus 10% calf serum. After overnight incubation at 37° C., selected drug concentrations in quadruplicate and HSV-1 at a concentration of 100 p.f.u./well were added. Following a 3-day incubation at 37° C., medium was removed, plates were blocked, rinsed, and horse radish peroxidase conjugated rabbit anti-HSV-1 antibody was added. Following removal of the antibody containing solution, plates were rinsed, and then developed by adding 150 μL per well of a solution of tetramethylbenzidine as substrate. The reaction was stopped with H2SO4 and absorbance was read at 450 and 570 nm. Drug effects were calculated as a percentage of the reduction in absorbance in the presence of each drug concentration compared to absorbance obtained with virus in the absence of drug.
as §3
For orientation: In an ELISA, binding on a coated surface is turned into a signal by an enzyme label.

The nature of data set [5]: Visual cytotoxicity in stationary HFF cells. It is filed as cell-based. The settings on record: human; HFF cells, scored at time of HCMV plaque enumeration; read-out: Cytotoxicity visual (IC50). The protocol:
(§4) Two different assays were used for routine cytotoxicity testing. (i) Cytotoxicity produced in stationary HFF cells was determined by microscopic inspection of cells not affected by the virus used in plaque assays (see Turk, S. R.; Shipman, C., Jr.; Nassiri, M. R.; Genzingler, G.; Krawczyk, S. H.; Townsend, L. B.; Drach, J. C. Pyrrolo[2,3-]pyrimidine Nucleosides as Inhibitors of Human Cytomegalovirus, Antimicrob. Agents Chemother. 1987, 31, 544-550). (ii) The effect of compounds during two population doublings of KB cells was determined by crystal violet staining and spectrophotometric quantitation of dye eluted from stained cells as described earlier (see Prichard, M. N.; Prichard, L. E., Baguley, W. A.; Nassiri, M. R.; Shipman, C., Jr. Three-Dimensional Analysis of the Synergistic Cytotoxicity of Ganciclovir and Zidovudine. Antiviral Res. 1991, 35, 1060-1065). Briefly, 96-well cluster dishes were planted with KB cells at 3000-5000 cells per well. After overnight incubation at 37° C., test compound was added in quadruplicate at six to eight concentrations. Plates were incubated at 37° C. for 48 hours in a CO2 incubator, rinsed, fixed with 95% ethanol, and stained with 0.1% crystal violet. Acidified ethanol was added and plates read at 570 nm in a spectrophotometer designed to read 96-well ELISA assay plates.
as §3

The nature of data set [6]: Inhibition of KB cell growth (crystal violet). The settings on record: human, KB cells; KB cell growth, 48 hours, quadruplicate; read-out: Cytotoxicity growth (IC50). It is filed as cell-based. The protocol:
as §4, §3

A further data set relates to HCMV Strain AD169. Put plainly: HCMV plaque reduction assay, strain AD169. It is filed as cell-based, Human cytomegalovirus. The following applies: Human betaherpesvirus 5, Table 3, read-out: HCMV Strain AD169 plaque 50% Inhibitory Concentration (IC50). The protocol:
as §2, §3

A further data set deals with Hepatitis B Virus (HBV). In words: Activity against Hepatitis B Virus (Jansen et al.). The following applies: two separate tests. It is filed as cell-based. As to the method: The activity of compounds against Hepatitis B Virus (HBV) was assessed as described in Jansen, R., et al., Antimicrobial Agents and Chemotherapy, Vol. 37, No. 3, pp. 441-447, 1993.
The test system of data set [7] is HSV-1. Put plainly: HSV-1 plaque assay (used for DHPG). It is filed as cell-based, herpes simplex virus 1. The settings on record: Human alphaherpesvirus 1; plaque assay used for DHPG instead of ELISA (footnote b); read-out: HSV-1 plaque assay 50% Inhibitory Concentration (IC50). The protocol: as §1, with “Briefly, HFF or BSC-1 cells were planted as described above in 96-well cluster dishes and incubated overnight at 37° C. The next day cultures were inoculated with HCMV or HSV-1 and serially diluted 1:3 across the remaining eleven columns of the 96-well plate. After virus adsorption the inoculum was replaced with fresh medium and cultures were incubated for seven days for HCMV, two or three days for HSV-1. Plaques were enumerated under 20-fold magnification in wells having the dilution which gave 5 to 20 plaques per well.” left out

Setting [8] is: Human betaherpesvirus 5, HFF, Table 3, same data as Table 2, read-out: HCMV Strain Towne plaque 50% Inhibitory Concentration (IC50).
Setting [9] is: Human betaherpesvirus 5, Table 2, HFF cells, duplicate, read-out: HCMV plaque 50% Inhibitory Concentration (IC50).
The mark [10] stands for this setting: Human betaherpesvirus 5, HFF, Table 3, same data as Table 2, read-out: HCMV Strain Towne yield 90% Inhibitory Concentration (IC90).
The mark [11] stands for this setting: Human betaherpesvirus 5, Table 2, HFF cells, duplicate, read-out: HCMV yield 90% Inhibitory Concentration (IC90).

On to `OC[C@H]1O[C@@H](n2c(Br)nc3cc(Cl)c(Cl)cc32)[C@H](O)[C@@H]1O` [BDCRB, 2-bromo-5,6-dichloro-1-(β-D-ribofuranosyl)benzimidazole], for which the “inhibition of HCMV” value in the data set on HCMV [1] is on record as “significant inhibitors of HCMV”.
The compound `OC[C@@H]1O[C@@H](n2c(Br)nc3cc(Cl)c(Cl)cc32)[C@H](O)[C@@H]1O` [Compound 5a, 2-Bromo-5,6dichloro-1-(α-L-lyxofuranosyl)benzimidazole] yielded a melting point of 178 to 179 °C. Moreover, the IC50 with HCMV [2] (setting [8]) came out at 2.8 µM. In addition, in the data set with HCMV [2] (setting [9]), the IC50 came to 2.8 µM. Moreover, the IC90 with HCMV [3] (setting [10]) came out at 0.8 µM. For the same compound, the IC90 with HCMV [3] (setting [11]) came out at 0.8 µM. Further, in the data set on HSV-1 [4], the IC50 was > 100 µM. Further, in data set [5], the IC50 is > 100 µM. Also, the IC50 at 48 h in data set [6] is > 100 µM. The IC50 with HCMV Strain AD169 came to 0.8 µM. Moreover, the IC50 in the data set on Hepatitis B Virus (HBV) (Hepatitis B virus) worked out at 8.8 µM. In addition, in the data set with Hepatitis B Virus (HBV), the IC50 came to 16 µM.
Consider `CNc1nc2cc(Cl)c(Cl)cc2n1[C@@H]1O[C@@H](CO)[C@@H](O)[C@H]1O` [Compound 6a, 5,6-Dichloro-1-(α-L-lyxofuranosyl)-2-(methylamino)benzimidazole], for which the melting point is 126 to 128 °C and 131 to 132 °C. For the same compound, the IC50 with HCMV [2] (setting [9]) was > 100 µM. In the data set on HSV-1 [4], the IC50 was > 100 µM. Besides, the IC50 in data set [5] was > 100 µM. For the same compound, the IC50 at 48 h in [6] is > 100 µM.
Turning to `OC[C@@H]1O[C@@H](n2c(=S)[nH]c3cc(Cl)c(Cl)cc32)[C@H](O)[C@@H]1O` [Compound 9a, 5,6-Dichloro-1-(α-L-lyxofuranosyl)benzimidazol-2-thione], the melting point is 234 to 236 °C. Besides, the IC50 in the data set on HCMV [2] (setting [9]) was > 100 µM. Moreover, in the data set with HCMV [3] (setting [11]), the IC90 is > 100 µM. Further, in the data set with HSV-1 [4], the IC50 is > 100 µM. Besides, in data set [5], the IC50 was > 100 µM. Also, the IC50 at 48 h in data set [6] was > 100 µM.
With `OC[C@H]1O[C@@H](n2c(Cl)nc3cc(Cl)c(Cl)cc32)[C@H](O)[C@@H]1O` [TCRB, 2,5,6-trichloro-1-(β-D-ribofuranosyl)benzimidazole, reference compound], the figures for the IC50 in the data set with HCMV [2] (setting [8]) and with HCMV Strain AD169 were 2.9 µM and 1.8 µM, respectively. In addition, the IC90 in the data set on HCMV [3] (setting [10]) was found to be 1.4 µM. Besides, the “inhibition of HCMV” value in the data set on HCMV [1] was “significant inhibitors of HCMV”.
For `Nc1nc(O)c2ncn(COC(CO)CO)c2n1` [ganciclovir (DHPG), ganciclovir, reference compound], the IC50 in the data set on HCMV [2] (setting [9]) is 7.4 ± 6.5 µM; in the data set with HSV-1 [7], 3.5 ± 2.1 µM; in data set [5], > 100 µM. For the same compound, the IC90 in the data set on HCMV [3] (setting [11]) stood at 1.6 ± 1.2 µM. Moreover, the IC50 at 48 h in [6] was > 100 µM.

The record behind these values is patent US6455506B1, “Lyxofuranosyl benzimidazoles as antiviral agents” (SmithKline Beecham Corporation, priority 1997, dated 2002).
